Earlier results in US6440947B1, “Method for treating occlusive peripheral vascular disease and coronary disease” (The Regents of the University of California, priority 1997, dated 2002).

Legend:
[1] = system: human umbilical vein endothelial cell cultures; settings: physiological concentrations

Nc1ncnc2c1ncn2[C@@H]1O[C@H](CO)[C@@H](O)[C@H]1O [Adenosine, adenosine]
effect on endothelial cell proliferation [1]: stimulates proliferation
half-life in vivo: less than 30 seconds
